Measurements from patent publication US11707539B2, “FAP-targeted radiopharmaceuticals and imaging agents, and uses related thereto” (Trustees of Tufts College, priority 2020, dated 2023).

System: HEK-mFAP tumor-bearing mice
Assay: 68Ga biodistribution, gamma counting after 50 min uptake
Assay type: in vivo, mouse
Method: Part 2 Biodistribution. The aim of the study is to assess ^68Ga-6555 biodistribution in HEK-mFAP tumor-bearing mice. HEK-mFAP tumor-bearing mice were used for the study (N=3). The mice were injected with ˜8 MBq (7.3-8.5 MBq range) of ^68Ga-6555 (prepared as per Example 20; IV through the tail vein using a catheter mounted with a 30 Ga needle). After 50 min uptake time (injection was performed under anesthasia using isoflurane inhalant, and stayed under anesthesia for 50 min), the mice were euthanized (with CO2) and tissues were collected (blood via cardiac puncture, heart, lungs, liver, spleen, pancreas, stomach, small intestine, kidney, muscle, femur, bone, skin, brain, tumor). After excision, the tissue samples were counted for gallium-68 radioactivity on a Cobra-II Auto-Gamma counter (Packard Instruments, Meriden, CTA), weighted, and data were expressed as % injected dose per gram (% ID/g).
Conducted as per Example 24 using ^68Ga-6952 prepared as per Example 22.
Biodistribution. The mice were injected with ˜8.6 MBq (7.6-10.0 MBq range). The majority of activity was located in the tumor (average % ID/g of 8.8). The kidney has the next largest amount of activity (average % ID/g of 2.18). […]

## C[C@@H](NC(=O)c1ccc(CNC(=O)CN2CCN3CCN4CCN(CC2)CC(=O)[O][Ga]([O]C(=O)C3)[O]C(=O)C4)cc1)C(=O)N1CCC[C@H]1B(O)O [[^68Ga]-6555]
50 min uptake time, IV
  uptake in all other selected tissues: low level of uptake comparable to the muscle
Blood, 50 min uptake after IV injection, average of N=3 mice
  % ID/g Blood, AVERAGE: 0.57 % ID/g
Blood, 50 min uptake, individual mouse #002
  % ID/g Blood, mouse #002: 0.67 % ID/g
Blood, 50 min uptake, individual mouse #005
  % ID/g Blood, mouse #005: 0.38 % ID/g
Blood, 50 min uptake, individual mouse #009
  % ID/g Blood, mouse #009: 0.64 % ID/g
Bone (femur), 50 min uptake after IV injection, average of N=3 mice
  % ID/g Bone (femur), AVERAGE: 0.33 % ID/g
Bone (femur), 50 min uptake, individual mouse #002
  % ID/g Bone (femur), mouse #002: 0.31 % ID/g
Bone (femur), 50 min uptake, individual mouse #005
  % ID/g Bone (femur), mouse #005: 0.50 % ID/g
Bone (femur), 50 min uptake, individual mouse #009
  % ID/g Bone (femur), mouse #009: 0.20 % ID/g
Brain, 50 min uptake after IV injection, average of N=3 mice
  % ID/g Brain, AVERAGE: 0.07 % ID/g
Brain, 50 min uptake, individual mouse #002
  % ID/g Brain, mouse #002: 0.03 % ID/g
Brain, 50 min uptake, individual mouse #005
  % ID/g Brain, mouse #005: 0.07 % ID/g
Brain, 50 min uptake, individual mouse #009
  % ID/g Brain, mouse #009: 0.10 % ID/g
Heart, 50 min uptake after IV injection, average of N=3 mice
  % ID/g Heart, AVERAGE: 0.34 % ID/g
Heart, 50 min uptake, individual mouse #002
  % ID/g Heart, mouse #002: 0.41 % ID/g
Heart, 50 min uptake, individual mouse #005
  % ID/g Heart, mouse #005: 0.17 % ID/g
Heart, 50 min uptake, individual mouse #009
  % ID/g Heart, mouse #009: 0.43 % ID/g
Kidneys, 50 min uptake after IV injection, average of N=3 mice
  % ID/g Kidneys, AVERAGE: 1.37 % ID/g
Kidneys, 50 min uptake, individual mouse #002
  % ID/g Kidneys, mouse #002: 1.50 % ID/g
Kidneys, 50 min uptake, individual mouse #005
  % ID/g Kidneys, mouse #005: 1.03 % ID/g
Kidneys, 50 min uptake, individual mouse #009
  % ID/g Kidneys, mouse #009: 1.58 % ID/g
Liver, 50 min uptake after IV injection, average of N=3 mice
  % ID/g Liver, AVERAGE: 1.01 % ID/g
Liver, 50 min uptake, individual mouse #002
  % ID/g Liver, mouse #002: 1.00 % ID/g
Liver, 50 min uptake, individual mouse #005
  % ID/g Liver, mouse #005: 0.79 % ID/g
Liver, 50 min uptake, individual mouse #009
  % ID/g Liver, mouse #009: 1.23 % ID/g
Lungs, 50 min uptake after IV injection, average of N=3 mice
  % ID/g Lungs, AVERAGE: 0.56 % ID/g
Lungs, 50 min uptake, individual mouse #002
  % ID/g Lungs, mouse #002: 0.62 % ID/g
Lungs, 50 min uptake, individual mouse #005
  % ID/g Lungs, mouse #005: 0.39 % ID/g
Lungs, 50 min uptake, individual mouse #009
  % ID/g Lungs, mouse #009: 0.67 % ID/g
Muscle, 50 min uptake after IV injection, average of N=3 mice
  % ID/g Muscle, AVERAGE: 0.74 % ID/g
Muscle, 50 min uptake, individual mouse #002
  % ID/g Muscle, mouse #002: 0.09 % ID/g
Muscle, 50 min uptake, individual mouse #005
  % ID/g Muscle, mouse #005: 0.21 % ID/g
Muscle, 50 min uptake, individual mouse #009
  % ID/g Muscle, mouse #009: 1.92 % ID/g
Pancreas, 50 min uptake after IV injection, average of N=3 mice
  % ID/g Pancreas, AVERAGE: 0.92 % ID/g
Pancreas, 50 min uptake, individual mouse #002
  % ID/g Pancreas, mouse #002: 1.41 % ID/g
Pancreas, 50 min uptake, individual mouse #005
  % ID/g Pancreas, mouse #005: 0.93 % ID/g
Pancreas, 50 min uptake, individual mouse #009
  % ID/g Pancreas, mouse #009: 0.42 % ID/g
Skin, 50 min uptake after IV injection, average of N=3 mice
  % ID/g Skin, AVERAGE: 0.28 % ID/g
Skin, 50 min uptake, individual mouse #002
  % ID/g Skin, mouse #002: 0.31 % ID/g
Skin, 50 min uptake, individual mouse #005
  % ID/g Skin, mouse #005: 0.27 % ID/g
Skin, 50 min uptake, individual mouse #009
  % ID/g Skin, mouse #009: 0.25 % ID/g
Small intestine, 50 min uptake after IV injection, average of N=3 mice
  % ID/g Small intestine, AVERAGE: 0.31 % ID/g
Small intestine, 50 min uptake, individual mouse #002
  % ID/g Small intestine, mouse #002: 0.39 % ID/g
Small intestine, 50 min uptake, individual mouse #005
  % ID/g Small intestine, mouse #005: 0.19 % ID/g
Small intestine, 50 min uptake, individual mouse #009
  % ID/g Small intestine, mouse #009: 0.35 % ID/g
Spleen, 50 min uptake after IV injection, average of N=3 mice
  % ID/g Spleen, AVERAGE: 0.77 % ID/g
Spleen, 50 min uptake, individual mouse #002
  % ID/g Spleen, mouse #002: 0.23 % ID/g
Spleen, 50 min uptake, individual mouse #005
  % ID/g Spleen, mouse #005: 0.74 % ID/g
Spleen, 50 min uptake, individual mouse #009
  % ID/g Spleen, mouse #009: 1.34 % ID/g
Stomach, 50 min uptake after IV injection, average of N=3 mice
  % ID/g Stomach, AVERAGE: 0.20 % ID/g
Stomach, 50 min uptake, individual mouse #002
  % ID/g Stomach, mouse #002: 0.07 % ID/g
Stomach, 50 min uptake, individual mouse #005
  % ID/g Stomach, mouse #005: 0.21 % ID/g
Stomach, 50 min uptake, individual mouse #009
  % ID/g Stomach, mouse #009: 0.32 % ID/g
Tumor (HEK-mFAP), 50 min uptake after IV injection, average of N=3 mice
  % ID/g Tumor, AVERAGE: 10.10 % ID/g
Tumor (HEK-mFAP), 50 min uptake, individual mouse #002
  % ID/g Tumor, mouse #002: 10.01 % ID/g
Tumor (HEK-mFAP), 50 min uptake, individual mouse #005
  % ID/g Tumor, mouse #005: 8.47 % ID/g
Tumor (HEK-mFAP), 50 min uptake, individual mouse #009
  % ID/g Tumor, mouse #009: 11.83 % ID/g
kidney, 50 min uptake time, IV
  average % ID/g: 1.37 % ID/g
tumor, 50 min uptake time, IV
  average % ID/g: 10.1 % ID/g
